Patent publication US10681909B2, “Herbicidal triazoles” (FMC Corporation, priority 2014, dated 2020)

Legend:
deadnettle = assay: Test D preemergence; assay type: in vivo, Lamium amplexicaule; settings: scale 0 to 100
Text: (§1) Seeds of plant species selected from bluegrass (annual bluegrass, Poa annua), blackgrass (Alopecurus myosuroides), canarygrass (Phalaris minor), chickweed (common chickweed, Stellaria media), galium (catchweed bedstraw, Galium aparine), bromegrass, down (downy bromegrass, Bromus tectorum), Russian thistle (Salsola kali), field poppy (Papaver rhoeas), field violet (Viola arvensis), foxtail, green (green foxtail, Setaria viridis), deadnettle (henbit deadnettle, Lamium amplexicaule), ryegrass, Ital. (Italian ryegrass, Lolium multiflorum), kochia (Kochia scoparia), lambsquarters (Chenopodium album), oilseed rape (Brassica napus), pigweed (Amaranthus retroflexus), chamomile (scentless chamomile, Matricaria inodora), speedwell (bird's-eye speedwell, Veronica persica), barley, spring (spring barley, Hordeum vulgare), wheat, spring (spring wheat, Triticum aestivum), buckwheat, wild (wild buckwheat, Polygonum convolvulus), wild mustard (Sinapis arvensis), oat, wild (wild oat, Avena fatua), radish, wild (wild radish, Raphanus raphanistrum), […]), barley, winter (winter barley, Hordeum vulgare), and wheat, winter (winter wheat, Triticum aestivum) were planted into a silt loam soil and treated preemergence with test chemicals formulated in a non-phytotoxic solvent mixture which included a surfactant. At the same time, these species were planted in pots containing Sunshine Redi-Earth® planting medium comprising spaghnum peat moss, vermiculite, starter nutrients and dolomitic limestone and treated with postemergence applications of the test chemicals formulated in the same manner. Plants ranged in height from 2 to 18 cm (1- to 4-leaf stage). Treated plants and controls were maintained in a controlled growth environment for 14 to 21 d after which time all species were compared to controls and visually evaluated. […] A dash (-) response means no test result.

ragweed = assay: Test C preemergence; assay type: in vivo, Ambrosia elatior; settings: for Ragweed plant response rating (0 to 100): Preemergence, visual rating after 13 to 15 d; for Plant response rating (scale of 0 to 100 where 0 is no effect and 100 is complete control): Ragweed, preemergence
Text: (§2) Seeds of plant species selected from blackgrass (Alopecurus myosuroides), ryegrass, Italian (Italian ryegrass, Lolium multiflorum), wheat (winter wheat, Triticum aestivum), galium (catchweed bedstraw, Galium aparine), corn (Zea mays), crabgrass, large (large crabgrass, Digitaria sanguinalis), foxtail, giant, (giant foxtail, Setaria faberii), johnsongrass (Sorghum halepense), lambsquarters (Chenopodium album), morningglory (Ipomoea coccinea), nutsedge, yellow (yellow nutsedge, Cyperus esculentus), pigweed (Amaranthus retroflexus), ragweed (common ragweed, Ambrosia elatior), soybean (Glycine max), barnyardgrass (Echinochloa crus-galli), oilseed rape (Brassica napus), waterhemp (common waterhemp, Amaranthus rudis), and velvetleaf (Abutilon theophrasti) were planted into a blend of loam soil and sand and treated preemergence with test chemicals formulated in a non-phytotoxic solvent mixture which included a surfactant. At the same time, plants selected from these crop and weed species and also chickweed (common chickweed, Stellaria media), oat, wild (wild oat, Avena fatua), and kochia (Kochia scoparia), were planted in pots containing Sunshine Redi-Earth® planting medium comprising spaghnum peat moss, vermiculite, starter nutrients and dolomitic limestone and treated with postemergence applications of test chemicals formulated in the same manner. Plants ranged in height from 2 to 18 cm (1- to 4-leaf stage) for postemergence treatments. […] A dash (-) response means no test result.

chickweed [1] = assay: Test D preemergence; assay type: in vivo, Stellaria media; settings: scale 0 to 100
Text: as §1

barley, spring = assay: Test D preemergence; assay type: in vivo, Hordeum vulgare; settings: scale 0 to 100
Text: as §1

barley, winter = assay: Test D preemergence; assay type: in vivo, Hordeum vulgare; settings: scale 0 to 100
Text: as §1

chickweed [2] = assay: Test D postemergence; assay type: in vivo, Stellaria media; settings: scale 0 to 100
Text: as §1

oat, wild = assay: Test D postemergence; assay type: in vivo, Avena fatua; settings: scale 0 to 100
Text: as §1

lambsquarters = assay: Test D postemergence; assay type: in vivo, Chenopodium album; settings: scale 0 to 100
Text: as §1

ryegrass, Italian = assay: Test C preemergence; assay type: in vivo, Lolium multiflorum; settings: for Ryegrass, Italian plant response rating (0 to 100): Preemergence, visual rating after 13 to 15 d; for Plant response rating (scale of 0 to 100 where 0 is no effect and 100 is complete control): Ryegrass, Italian, preemergence
Text: as §2

ryegrass, Ital. = assay: Test D preemergence; assay type: in vivo, Lolium multiflorum; settings: scale 0 to 100
Text: as §1

velvetleaf [3] = assay: Test A preemergence; assay type: in vivo, Abutilon theophrasti; settings: Abutilon theophrasti, pre-emergence, 240 h, 0 to 100 scale (0 no effect, 100 complete control), read-out: Plant response rating, Velvetleaf; for pest or weed control at 125 g/ha: 125 g ai/ha; for pest or weed control at 500 g/ha: 500 g ai/ha, approx. 10 d
Procedure, shortened: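 Herbicidal response was scored on plants treated pre- or postemergence with surfactant-containing, non-phytotoxic solvent formulations. Preemergence meant a directed spray onto soil (loam–sand) holding sown seed; postemergence plants were at one to two leaves.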

blackgrass = assay: Test D postemergence; assay type: in vivo, Alopecurus myosuroides; settings: scale 0 to 100
Text: as §1

velvetleaf [4] = assay: Test C preemergence; assay type: in vivo, Abutilon theophrasti; settings: for Velvetleaf plant response rating (0 to 100): Preemergence, visual rating after 13 to 15 d; for Plant response rating (scale of 0 to 100 where 0 is no effect and 100 is complete control): Velvetleaf, preemergence, 250 g ai/ha
Text: as §2

CCc1nc(-c2ccc(C(F)(F)F)cc2)nn1Cc1ccnc(C(F)(F)F)c1 [Compound 1, 4-[[5-ethyl-3-[4-(trifluoromethyl)phenyl]-1H-1,2,4-triazol-1-yl]methyl]-2-(trifluoromethyl)pyridine]
Plant response rating: Deadnettle (deadnettle; 31 g ai/ha): 100
Plant response rating: Deadnettle (deadnettle; 62 g ai/ha): 100
Plant response rating: Deadnettle (deadnettle; 125 g ai/ha): 100
Plant response rating: Deadnettle (deadnettle; 250 g ai/ha): 100
Ragweed plant response rating (0 to 100) (ragweed; 31 g ai/ha): 35
Ragweed plant response rating (0 to 100) (ragweed; 62 g ai/ha): 50
Plant response rating (scale of 0 to 100 where 0 is no effect and 100 is complete control) (ragweed; 125 g ai/ha): 60
Plant response rating (scale of 0 to 100 where 0 is no effect and 100 is complete control) (ragweed; 250 g ai/ha): 70
Plant response rating: Chickweed (chickweed [1]; 31 g ai/ha): 90
Plant response rating: Chickweed (chickweed [1]; 62 g ai/ha): 100
Plant response rating: Chickweed (chickweed [1]; 125 g ai/ha): 100
Plant response rating: Chickweed (chickweed [1]; 250 g ai/ha): 100
Plant response rating: Barley, Spring (barley, spring; 31 g ai/ha): 0
Plant response rating: Barley, Spring (barley, spring; 62 g ai/ha): 0
Plant response rating: Barley, Spring (barley, spring; 125 g ai/ha): 0
Plant response rating: Barley, Spring (barley, spring; 250 g ai/ha): 5
Plant response rating: Barley, Winter (barley, winter; 31 g ai/ha): 0
Plant response rating: Barley, Winter (barley, winter; 62 g ai/ha): 5
Plant response rating: Barley, Winter (barley, winter; 125 g ai/ha): 10
Plant response rating: Barley, Winter (barley, winter; 250 g ai/ha): 20
Plant response rating: Chickweed (chickweed [2]; 31 g ai/ha): 75
Plant response rating: Chickweed (chickweed [2]; 62 g ai/ha): 80
Plant response rating: Chickweed (chickweed [2]; 125 g ai/ha): 85
Plant response rating: Chickweed (chickweed [2]; 250 g ai/ha): 90
Plant response rating: Oat, Wild (oat, wild; 31 g ai/ha): 25
Plant response rating: Oat, Wild (oat, wild; 62 g ai/ha): 30
Plant response rating: Oat, Wild (oat, wild; 125 g ai/ha): 35
Plant response rating: Oat, Wild (oat, wild; 250 g ai/ha): 45
Plant response rating: Lambsquarters (lambsquarters; 31 g ai/ha): 75
Plant response rating: Lambsquarters (lambsquarters; 62 g ai/ha): 80
Plant response rating: Lambsquarters (lambsquarters; 125 g ai/ha): 85
Plant response rating: Lambsquarters (lambsquarters; 250 g ai/ha): 90
Ryegrass, Italian plant response rating (0 to 100) (ryegrass, Italian; 31 g ai/ha): 5
Ryegrass, Italian plant response rating (0 to 100) (ryegrass, Italian; 62 g ai/ha): 10
Plant response rating (scale of 0 to 100 where 0 is no effect and 100 is complete control) (ryegrass, Italian; 125 g ai/ha): 90
Plant response rating: Ryegrass, Ital. (ryegrass, Ital.; 62 g ai/ha): 25
Plant response rating: Ryegrass, Ital. (ryegrass, Ital.; 125 g ai/ha): 30
Plant response rating: Ryegrass, Ital. (ryegrass, Ital.; 250 g ai/ha): 35
pest or weed control at 125 g/ha (velvetleaf [3]): 30%
pest or weed control at 500 g/ha (velvetleaf [3]): 100%
Plant response rating: Blackgrass (blackgrass; 31 g ai/ha): 10
Plant response rating: Blackgrass (blackgrass; 62 g ai/ha): 20
Plant response rating: Blackgrass (blackgrass; 125 g ai/ha): 30
Plant response rating: Blackgrass (blackgrass; 250 g ai/ha): 45
Velvetleaf plant response rating (0 to 100) (velvetleaf [4]; 31 g ai/ha): 15
Velvetleaf plant response rating (0 to 100) (velvetleaf [4]; 62 g ai/ha): 30
Plant response rating (scale of 0 to 100 where 0 is no effect and 100 is complete control) (velvetleaf [4]): 75

CCOc1nc(-c2ccc(F)cc2)nn1Cc1ccnc(C(F)(F)F)c1 [Compound 8, 4-[[5-ethoxy-3-(4-fluorophenyl)-1H-1,2,4-triazol-1-yl]methyl]-2-(trifluoromethyl)pyridine]
Plant response rating: Deadnettle (deadnettle; 31 g ai/ha): 100
Plant response rating: Deadnettle (deadnettle; 62 g ai/ha): 100
Plant response rating: Deadnettle (deadnettle; 125 g ai/ha): 100
Plant response rating: Deadnettle (deadnettle; 250 g ai/ha): 100
Ragweed plant response rating (0 to 100) (ragweed; 31 g ai/ha): 75
Ragweed plant response rating (0 to 100) (ragweed; 62 g ai/ha): 85
Plant response rating (scale of 0 to 100 where 0 is no effect and 100 is complete control) (ragweed; 125 g ai/ha): 90
Plant response rating (scale of 0 to 100 where 0 is no effect and 100 is complete control) (ragweed; 250 g ai/ha): 90
Plant response rating: Chickweed (chickweed [1]; 31 g ai/ha): 100
Plant response rating: Chickweed (chickweed [1]; 62 g ai/ha): 100
Plant response rating: Chickweed (chickweed [1]; 125 g ai/ha): 100
Plant response rating: Chickweed (chickweed [1]; 250 g ai/ha): 100
Plant response rating: Barley, Spring (barley, spring; 31 g ai/ha): 5
Plant response rating: Barley, Spring (barley, spring; 62 g ai/ha): 20
Plant response rating: Barley, Spring (barley, spring; 125 g ai/ha): 45
Plant response rating: Barley, Spring (barley, spring; 250 g ai/ha): 60
Plant response rating: Barley, Winter (barley, winter; 31 g ai/ha): 5
Plant response rating: Barley, Winter (barley, winter; 62 g ai/ha): 25
Plant response rating: Barley, Winter (barley, winter; 125 g ai/ha): 35
Plant response rating: Barley, Winter (barley, winter; 250 g ai/ha): 45
Plant response rating: Chickweed (chickweed [2]; 31 g ai/ha): 80
Plant response rating: Chickweed (chickweed [2]; 62 g ai/ha): 85
Plant response rating: Chickweed (chickweed [2]; 125 g ai/ha): 85
Plant response rating: Chickweed (chickweed [2]; 250 g ai/ha): 90
Plant response rating: Oat, Wild (oat, wild; 31 g ai/ha): 35
Plant response rating: Oat, Wild (oat, wild; 62 g ai/ha): 45
Plant response rating: Oat, Wild (oat, wild; 125 g ai/ha): 45
Plant response rating: Oat, Wild (oat, wild; 250 g ai/ha): 55
Plant response rating: Lambsquarters (lambsquarters; 31 g ai/ha): 95
Plant response rating: Lambsquarters (lambsquarters; 62 g ai/ha): 95
Plant response rating: Lambsquarters (lambsquarters; 125 g ai/ha): 95
Plant response rating: Lambsquarters (lambsquarters; 250 g ai/ha): 90
Ryegrass, Italian plant response rating (0 to 100) (ryegrass, Italian; 31 g ai/ha): 50
Ryegrass, Italian plant response rating (0 to 100) (ryegrass, Italian; 62 g ai/ha): 80
Plant response rating (scale of 0 to 100 where 0 is no effect and 100 is complete control) (ryegrass, Italian; 125 g ai/ha): 90
Plant response rating (scale of 0 to 100 where 0 is no effect and 100 is complete control) (ryegrass, Italian; 250 g ai/ha): 90
Plant response rating: Ryegrass, Ital. (ryegrass, Ital.; 62 g ai/ha): 40
Plant response rating: Ryegrass, Ital. (ryegrass, Ital.; 125 g ai/ha): 95
Plant response rating: Ryegrass, Ital. (ryegrass, Ital.; 250 g ai/ha): 100
pest or weed control at 125 g/ha (velvetleaf [3]): 70%
pest or weed control at 500 g/ha (velvetleaf [3]): 90%
Plant response rating: Blackgrass (blackgrass; 31 g ai/ha): 50
Plant response rating: Blackgrass (blackgrass; 62 g ai/ha): 50
Plant response rating: Blackgrass (blackgrass; 125 g ai/ha): 75
Plant response rating: Blackgrass (blackgrass; 250 g ai/ha): 70
Velvetleaf plant response rating (0 to 100) (velvetleaf [4]; 31 g ai/ha): 70
Velvetleaf plant response rating (0 to 100) (velvetleaf [4]; 62 g ai/ha): 85
Plant response rating (scale of 0 to 100 where 0 is no effect and 100 is complete control) (velvetleaf [4]): 100
